Values of other authors, collected in US20130018223A1, “METHOD FOR TIMING A COLONOSCOPY” (priority 2011, published 2013).

In the case of `[O]=[Mg]` [Magnesium oxide], the solubility in alcohol is given as “not soluble”.
